Assay results taken from patent US10071965B2, “Pyridone FabI inhibitors and uses thereof” (priority 2015, dated 2018).
Converted amounts (≈) assume the structure as drawn. Read-outs that look alike come from different tables or passages of the source.

Experiments:
saFabI = saFabI (Staphylococcus aureus (strain MRSA252), UniProt Q6GI75); test: saFabI inhibition kinetics; assay type: biochemical
S. aureus RN4220 = test: MIC microbroth dilution, S. aureus RN4220; assay type: cell-based, Staphylococcus aureus; conditions: Staphylococcus aureus
F. tularensis LVS = test: microbe, parasite or virus in culture; assay type: cell-based; conditions: Francisella tularensis, read-out: Francisella tularensis MIC (μg/mL) LVS, 2-pyridones table
Bt38 = test: microbe, parasite or virus in culture; assay type: cell-based; conditions: Burkholderia pseudomallei, read-out: Burkholderia pseudomallei MIC (μg/mL) Bt38
[1] = molecular target: Francisella tularensis FabI (Francisella tularensis subsp. tularensis (strain SCHU S4 / Schu 4), UniProt Q5NGQ3); test: biochemical
[2] = molecular target: M. tuberculosis enoyl-ACP reductase InhA (Mycobacterium tuberculosis (strain ATCC 25618 / H37Rv), UniProt P9WGR1); test: InhA inhibition kinetics; assay type: biochemical
M. tuberculosis H37Rv = test: MIC microbroth dilution, M. tuberculosis H37Rv; assay type: cell-based; conditions: Mycobacterium tuberculosis, H37RV, read-out: Mycobacterium tuberculosis MIC (μg/mL) H37Rv
YpFabV = YpFabV (Yersinia pestis, UniProt Q8Z9U1); test: biochemical
bpFabI = bpFabI (Burkholderia pseudomallei, UniProt A0A0H3HP34); test: biochemical
ecFabI = ecFabI (Escherichia coli (strain K12), UniProt P0AEK4); test: ecFabI inhibition kinetics; assay type: biochemical
E. coli MG1655 ΔacrAB = test: microbe, parasite or virus in culture; assay type: cell-based, Escherichia coli; conditions: Escherichia coli, MG1655
MRSA strain BAA1762 = test: Neutropenic mouse thigh infection model; assay type: in vivo, Swiss Webster mice
in vivo = conditions: female, ICR, mouse, ip, 200 mg/kg
[3] = Ki^app (nM), saFabI, [S]/KS = 2
[4] = Staphylococcus aureus Ki (in brackets under IC50), 2-pyridones table
[5] = RN4220, 2-pyridones table, read-out: Staphylococcus aureus MIC (μg/mL) RN4220
[6] = RN4220, S. aureus RN4220, read-out: MIC

CCCCCCc1ccn(Cc2ccccc2C#N)c(=O)c1 [PT420]
IC50 (saFabI): 746 ± 165 nM
Ki (saFabI; Ki (nM), saFabI): 29.6 ± 9.5 nM
Ki (saFabI; [3]): 110 ± 1.7 nM
Ki (saFabI; [4]): 29.6 ± 0.5 nM
MIC (S. aureus RN4220; [5]): 32 µg/mL
MIC (S. aureus RN4220; [6]): 109 µM
MIC (F. tularensis LVS): 10.2 µg/mL (≈ 34.7 µM)
MIC (Bt38): 44.4 µg/mL (≈ 151 µM)
IC50 [1]: 727 ± 84 nM

CCCCCCc1ccn(Cc2ccc(Cl)cc2)c(=O)c1 [PT426]
IC50 (saFabI): 185 ± 18 nM
MIC (S. aureus RN4220; [5]): ~32 µg/mL

Cc1cc([N+](=O)[O-])ccc1Oc1cn(C)c(CCl)cc1=O [PT152]
IC50 [2]: 2250 nM
MIC (M. tuberculosis H37Rv; 4-pyridones table): 12.5 µg/mL (≈ 40.5 µM)

CCCCCCc1ccn(Cc2ccc([N+](=O)[O-])cc2)c(=O)c1 [PT424]
IC50 (saFabI): 1500 ± 200 nM
Ki (YpFabV): 11000 nM

CCCCCCc1cc(=O)c(Oc2ccccc2C#N)cn1C [PT159]
Ki (saFabI; Ki (nM), saFabI): 11 ± 0.9 nM
Ki (saFabI; [3]): 41 ± 3.4 nM
Ki (saFabI; Staphylococcus aureus Ki (nM), 4-pyridones table): 11 nM
IC50 [2]: 629 nM
MIC (S. aureus RN4220; RN4220, 4-pyridones table, read-out: Staphylococcus aureus MIC (μg/mL) RN4220): 4 µg/mL
MIC (S. aureus RN4220; [6]): 12.9 µM
MIC (M. tuberculosis H37Rv; 4-pyridones table): 50 µg/mL (≈ 161 µM)

Cc1ccn(Cc2ccccc2Cl)c(=O)c1 [PT170]
IC50 (saFabI): > 1000 nM
Ki (saFabI; Ki (nM), saFabI): 229 ± 5.2 nM
Ki (saFabI; [3]): 849 ± 19.3 nM
Ki (saFabI; [4]): 229 ± 5.2 nM
IC50 [2]: > 1700 nM
MIC (S. aureus RN4220; [5]): > 500 µg/mL
MIC (S. aureus RN4220; [6]): > 500 µM
MIC (F. tularensis LVS): 50 µg/mL (≈ 214 µM)
MIC (M. tuberculosis H37Rv; 2-pyridones table): > 50 µg/mL
IC50 [1]: 202 ± 17 nM
IC50 (bpFabI): > 1000 nM

CCCCCCc1ccn(Cc2ccc(N)cc2)c(=O)c1 [PT425]
IC50 (saFabI): 380 ± 20 nM
MIC (S. aureus RN4220; [5]): ~32 µg/mL

Oc1ccccc1Oc1ccccc1 [PT51, reference compound]
MIC (S. aureus RN4220; [6]): 687 µM

CCCCCCc1ccn(Cc2ccc(F)cc2)c(=O)c1 [PT422]
IC50 (saFabI): 222 ± 22 nM
MIC (S. aureus RN4220; [5]): 1 µg/mL

Cc1ccc(Oc2ccccc2)c(O)c1 [PT53, reference compound]
MIC (S. aureus RN4220; [6]): 20 µM

CCCCCCc1ccc(Oc2ccccc2)c(O)c1 [PT04, 5-hexyl-2-phenoxyphenol, reference compound]
Ki (ecFabI; [S]/KS = 0.19, binds E-NAD+ binary complex, single point progress curve analysis, read-out: Ki^app): 32.2 nM
Ki (ecFabI; binds E-NAD+ binary complex, single point progress curve analysis, read-out: Ki): 0.2 nM
MIC (E. coli MG1655 ΔacrAB): 14.8 µM (≈ 4 µg/mL)
decrease of bacterial burden in the infected thigh (MRSA strain BAA1762; 100 mg/kg dose, MRSA BAA1762, neutropenic mouse): 0.9 log cfu/g tissue
AUC(0-t) (in vivo): 11800 ng·h/mL
Cmax (in vivo): 5100 ng/mL
Tmax (in vivo): 1 h
half-life (in vivo): 4.5 h

CCCCCCc1ccn(Cc2ccccc2C)c(=O)c1 [PT171]
IC50 (saFabI): 150 ± 22 nM
Ki (saFabI; Ki (nM), saFabI): 11.9 ± 1.8 nM
Ki (saFabI; [3]): 44.3 ± 6.6 nM
Ki (saFabI; [4]): 11.9 ± 1.8 nM
Ki (ecFabI; Ki^app (nM), [S]/KS = 0.19): 116 ± 4.6 nM
IC50 [2]: 130 ± 21 nM
MIC (S. aureus RN4220; [5]): 5 µg/mL
MIC (F. tularensis LVS): 3.65 µg/mL (≈ 12.9 µM)
MIC (M. tuberculosis H37Rv; 2-pyridones table): 25 µg/mL (≈ 88.2 µM)
MIC (Bt38): 154 µg/mL (≈ 542 µM)
IC50 [1]: 83 ± 32 nM
IC50 (bpFabI): ~400 nM

CCCCCCc1ccn(Cc2cccc([N+](=O)[O-])c2C)c(=O)c1 [PT174]
IC50 (saFabI): 248 ± 20 nM
MIC (S. aureus RN4220; [5]): 50 µg/mL
MIC (F. tularensis LVS): 2.12 µg/mL (≈ 6.46 µM)
MIC (Bt38): 250 µg/mL (≈ 761 µM)
IC50 [1]: 85 ± 11 nM

Cc1onc(-c2ccccc2)c1C(=O)N[C@@H]1C(=O)N2[C@@H]1SC(C)(C)[C@@H]2C(=O)O [oxacillin]
in vivo antibacterial efficacy (MRSA strain BAA1762; MRSA BAA1762, neutropenic mouse thigh, FIG. 8): no in vivo antibacterial efficacy

CCCCCCc1ccn(Cc2ccc(C(C)=O)cc2)c(=O)c1 [PT427]
IC50 (saFabI): 394 ± 40 nM
MIC (S. aureus RN4220; [5]): > 128 µg/mL
